Assay results: the supplement of paper PMC10307832

Tests used:
Test in all cases: relative viability (nuclei count vs DMSO), 5 days (fraction); higher = more cells survive
[1] = compound: C#Cc1cccc(Nc2ncnc3cc(OC)c(OCCCCCCC(=O)NO)cc23)c1 [CUDC-101] + Cc1nc(Nc2ncc(C(=O)Nc3c(C)cccc3Cl)s2)cc(N2CCN(CCO)CC2)n1 [Dasatinib] (partner 0.075 µM)
In short: (§1)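 Lung cancer cell lines were pin-tool dosed in 1536-well plates on the day after seeding, with either a lone drug or a fixed anchor-drug dose plus five library-drug doses (not always all listed) in √10 steps. Nuclei were counted on 4× images after 5 days. Relative viability is the ratio of treated-well to vehicle-well nuclei counts, with each value a median of duplicate plates.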

[2] = compound: COc1cc2/c(=N/c3ccc(Br)cc3F)nc[nH]c2cc1OCC1CCN(C)CC1 [Vandetanib] + CC(=O)c1c(C)c2cnc(Nc3ccc(N4CCNCC4)cn3)nc2n(C2CCCC2)c1=O [Palbociclib] (partner 0.5 µM)
In short: as §1

[3] = compound: COc1cc2/c(=N/c3ccc(Br)cc3F)nc[nH]c2cc1OCC1CCN(C)CC1 [Vandetanib] + C[C@@H](Oc1cc(-c2cnn(C3CCNCC3)c2)cnc1N)c1c(Cl)ccc(F)c1Cl [Crizotinib] (partner 1 µM)
In short: as §1

[4] = compound: COc1cc2/c(=N/c3ccc(Br)cc3F)nc[nH]c2cc1OCC1CCN(C)CC1 [Vandetanib] + N=C(N)NC(=N)NCCc1ccccc1 [Phenformin] (partner 250 µM)
In short: as §1

| Cell Line | relative viability ([1]; first compound 0.01 µM) | relative viability ([1]; first compound 0.03162 µM) | relative viability ([1]; first compound 0.1 µM) | relative viability ([1]; first compound 0.3162 µM) | relative viability ([1]; first compound 1 µM) | relative viability ([2]; first compound 0.02 µM) | relative viability ([2]; first compound 0.06325 µM) | relative viability ([2]; first compound 0.2 µM) | relative viability ([2]; first compound 0.6325 µM) | relative viability ([2]; first compound 2 µM) | relative viability ([3]; first compound 0.02 µM) | relative viability ([3]; first compound 0.06325 µM) | relative viability ([3]; first compound 0.2 µM) | relative viability ([3]; first compound 0.6325 µM) | relative viability ([3]; first compound 2 µM) | relative viability ([4]; first compound 0.02 µM) | relative viability ([4]; first compound 0.06325 µM) | relative viability ([4]; first compound 0.2 µM) | relative viability ([4]; first compound 0.6325 µM) | relative viability ([4]; first compound 2 µM) |
| --- | --- | --- | --- | --- | --- | --- | --- | --- | --- | --- | --- | --- | --- | --- | --- | --- | --- | --- | --- | --- |
| 201T | 0.578 | 0.563 | 0.579 | 0.591 | 0.511 | 0.35 | 0.353 | 0.332 | 0.314 | 0.335 | 1 | 1.03 | 0.978 | 0.95 | 0.969 | 0.466 | 0.406 | 0.427 | 0.403 | 0.424 |
| A549 | – | – | – | – | – | – | – | – | – | – | 0.777 | 0.69 | 0.862 | 0.686 | 0.683 | 0.195 | 0.133 | 0.121 | 0.142 | 0.0686 |
| A-427 | 0.745 | 0.659 | 0.649 | 0.608 | 0.389 | 0.508 | 0.497 | 0.485 | 0.531 | 0.503 | 0.895 | 0.88 | 0.966 | 0.874 | 0.879 | 0.297 | 0.303 | 0.274 | 0.253 | 0.22 |
| ABC-1 | 0.772 | 0.728 | 0.543 | 0.532 | 0.194 | 0.91 | 0.541 | 0.693 | 0.708 | 0.643 | 1.13 | 1.05 | 1 | 1.34 | 0.728 | 0.248 | 0.205 | 0.256 | 0.275 | 0.266 |
| BEN | 0.426 | 0.301 | 0.346 | 0.311 | 0.264 | 0.458 | 0.46 | 0.443 | 0.479 | 0.448 | 0.809 | 0.807 | 0.89 | 0.862 | 0.785 | 0.266 | 0.278 | 0.279 | 0.292 | 0.262 |
| CAL-12T | 0.72 | 0.372 | 0.346 | 0.514 | 0.318 | 0.562 | 0.474 | 0.482 | 0.22 | 0.172 | 0.778 | 0.846 | 0.799 | 0.707 | 0.364 | 0.536 | 0.539 | 0.446 | 0.411 | 0.242 |
| COR-L23 | 0.578 | 0.485 | 0.477 | 0.499 | 0.177 | 0.345 | 0.27 | 0.294 | 0.318 | 0.268 | 0.698 | 0.623 | 0.114 | 0.671 | 0.729 | 0.485 | 0.442 | 0.428 | 0.452 | 0.464 |
| COR-L 105 | 0.337 | 0.382 | 0.277 | 0.418 | 0.122 | 0.388 | 0.442 | 0.392 | 0.38 | 0.39 | 0.851 | 0.839 | 0.729 | 0.731 | 0.248 | 0.535 | 0.483 | 0.449 | 0.292 | 0.294 |
| Calu-6 | – | – | – | – | – | – | – | – | – | – | 0.816 | 0.723 | 0.897 | 0.833 | 0.791 | – | – | – | – | – |
| ChaGo-K-1 | 0.571 | 0.612 | 0.526 | 0.539 | 0.529 | 0.921 | 0.881 | 0.19 | 0.887 | 0.927 | 1.1 | 1.19 | 1.14 | 1.13 | 1.16 | 0.411 | 0.463 | 0.297 | 0.452 | 0.466 |
| EBC-1 | – | – | – | – | – | – | – | – | – | – | 0.19 | 0.177 | 0.195 | 0.194 | 0.152 | – | – | – | – | – |
| EKVX | 0.374 | 0.499 | 0.571 | 0.439 | 0.362 | 0.415 | 0.396 | 0.345 | 0.291 | 0.176 | 1.01 | 0.882 | 1.13 | 1.02 | 0.531 | 0.245 | 0.234 | 0.228 | 0.227 | 0.219 |
| EMC-BAC-2 | 0.359 | 0.324 | 0.35 | 0.262 | 0.149 | 0.533 | 0.499 | 0.546 | 0.515 | 0.502 | 0.764 | 0.778 | 0.432 | 0.765 | 0.708 | 0.51 | 0.506 | 0.339 | 0.485 | 0.463 |
| EPLC-272H | 0.448 | 0.364 | 0.316 | 0.357 | 0.183 | 0.329 | 0.321 | 0.329 | 0.282 | 0.311 | 1.01 | 0.732 | 0.961 | 0.845 | 0.917 | 0.326 | – | 0.294 | 0.273 | 0.301 |
| H3255 | 0.429 | 0.373 | – | 0.298 | 0.171 | 0.316 | 0.311 | 0.32 | 0.298 | 0.245 | 0.882 | 0.847 | 0.739 | 0.519 | 0.208 | 0.427 | 0.359 | 0.35 | 0.303 | 0.192 |
| HARA | 0.246 | 0.311 | 0.271 | 0.282 | 0.229 | 0.261 | 0.224 | 0.225 | 0.293 | 0.221 | 1.04 | 1.02 | 1.01 | 0.998 | 0.956 | 0.471 | 0.447 | 0.44 | 0.381 | 0.351 |
| HCC-15 | 0.641 | 0.622 | 0.628 | 0.672 | 0.473 | 0.647 | 0.713 | 0.646 | 0.75 | 0.721 | 0.837 | 0.793 | 0.855 | 0.826 | 0.821 | 0.476 | 0.429 | 0.468 | 0.449 | 0.447 |
| HCC-44 | – | – | – | – | – | 0.91 | 0.914 | 0.967 | 0.979 | 0.961 | 0.82 | 0.802 | 0.879 | 0.863 | 0.872 | 0.186 | 0.223 | 0.175 | 0.242 | 0.121 |
